Results from US9617276B2, “Compounds and methods for treating AIDS and HIV infections” (priority 2009, dated 2017).
Values joined by “and” are separate entries in the source; they are usually repeats but may differ in a detail not shown here. Equal entries are not always repeated. Where two headings read alike, the source gives them in different places.

How the values were obtained:
HIV-1LAI = experiment: drug susceptibility, MT-2 cells, MTT assay, HIV-1LAI; format: cell-based; settings: for Selectivity Index: ratio of CC50 to EC50 against HIV-1LAI
Procedure: (§1) All assays were performed in duplicate or triplicate. […] All assays were performed in duplicate or triplicate.
(§2) Each selectivity index denotes a ratio of CC50 to EC50 against HIV-1LAI N.D., not done.

HIV-2EHO = experiment: drug susceptibility, MT-2 cells, MTT assay, HIV-2EHO; format: cell-based
Procedure: as §1, §2

HIV-2ROD = experiment: drug susceptibility, MT-2 cells, MTT assay, HIV-2ROD; format: cell-based
Procedure: as §1, §2

cytotoxicity CC50 = format: cell-based, Human; settings: human
HIV-1NL4-3 [1] = experiment: p24 Gag inhibition in MT-4 cells, HIV-1NL4-3; format: cell-based
Procedure: as §1

HIV-1NFV5μM = experiment: microbe, parasite or virus in culture; format: cell-based; settings: for EC50: Human immunodeficiency virus 1, MT4, read-out: EC50 (μM), HIV-1NPV5 μM; for n-fold change in EC50, HIV-1NPV5 μM: compared to wild-type HIV-1NL4-3
Procedure: (§3) The susceptibility of HIV-1LAI and primary HIV-1 isolates to various drugs were determined as described previously (Koh et al. 2003 Antimicrob Agents Chemother 47:3123-9). Briefly, MT-2 cells (2×10^4/ml) were exposed to 100 50% tissue culture infectious doses (TCID50S) of HIV-1LAI, in the presence or absence of various concentrations of drugs in 96-well microculture plates and were incubated at 37° C. for 7 days. After 100 μl of the medium was removed from each well, 3-(4,5-dimetylthiazol-2-yl)-2,5-diphenyltetrazolium bromide (MTT) solution (10 μl, 7.5 mg/ml in phosphate-buffered saline) was added to each well in the plate, followed by incubation at 37° C. for 3 h. […] All assays were performed in duplicate or triplicate. To determine the susceptibility of primary HIV-1 isolates to drugs, phytohemagglutinin-activated peripheral blood mononuclear cells (PHA-PBMCs; 106/ml) were exposed to 50 TCID50S of each. The target cells were exposed to HIV-1104pre or drug-resistant HIV-1 in the presence or absence of various concentrations of drugs and were incubated for 7 days. Upon the conclusion of the culture, the amounts of p24 Gag protein in the supernatants were determined using a fully automated chemiluminescent enzyme immunoassay system (Lumipulse F; Fujirebio Inc., Tokyo, Japan) (Maeda et al. 2001 J Biol Chem 276:35194-200). To determine the drug susceptibility of certain laboratory HIV-1 strains, MT-4 cells were used as target cells. In brief, MT-4 cells (10^5/ml) were exposed to 100 TCID50S of drug-resistant HIV-1 strains in the presence or absence of various concentrations of drugs and on day 7 of culture, the supernatant was harvested and the amounts of p24 Gag protein were determined. […] All assays were performed in duplicate or triplicate.
Numbers in parentheses represent n-fold changes in EC50s for each isolate compared to the EC50s for wild-type HIV-1NL4-3.

HIV-1NL4-3 [2] = experiment: in vitro selection of PI-resistant HIV-1 variants in MT-4 cells; format: cell-based; settings: HIV-1NL4-3 in MT-4 cells, increasing drug concentrations
Excerpt: The culture supernatants were harvested on day 7 and used to infect fresh MT-4 cells for the next round of culture in the presence of increasing concentrations of each drug.

[3] = test system: HIV-1ERS104pre (wild-type); experiment: p24 Gag inhibition in PHA-PBMCs, HIV-1ERS104pre; format: cell-based; settings: mean ± 1 SD
Procedure: as §3
(§4) These clinical strains contained 9 to 14 amino acid substitutions in the protease-encoding region, which have reportedly been associated with HIV-1 resistance to various PIs.
(§5) Amino acid substitutions identified in the protease-encoding region compared to the consensus type B sequence cited from the Los Alamos database include L63P in HIV-1ERS104pre; L10I, K14R, L33I, M36I, M46I, F53I, K55R, I62V, L63P, A71V, G73S, V82A, L90M, and I93L in HIV-1MDR/B; L10I, I15V, K20R, L24I, M36I, M46L, I54V, I62V, L63P, K70Q, V82A, and L89M in HIV-1MDR/C; L10I, V11I, T12E, I15V, L19I, R41K, M46L, L63P, A71T, V82A, and L90M in HIV-1MDR/G; L10I, K14R, R41K, M46L, I54V, L63P, A71V, V82A, L90M, I93L in HIV-1MDR/TM; L10I, K43T, M46L, I54V, L63P, A71V, V82A, L90M, and Q92K in HIV-1MDR/MM; L10I, L24I, I33F, E35D, M36I, N37S, M46L, I54V, R57K, I62V, L63P, A71V, G73S, and V82A in HIV-1MDR/JSL. HIV-1ERS104pre served as a source of wild-type HIV-1. EC50s were determined by using PHA-PBMs as target cells, and inhibition of p24 Gag protein production by each drug was used as an end point. Numbers in parentheses represent n-fold changes of EC50s for each isolate compared to EC50s for wild-type HIV-1ERS104pre.

HIV-1MDR/B = format: cell-based; settings: for EC50 (μM), HIV-1MDR/B (SI): PHA-PBMCs, p24 Gag; for n-fold change of EC50, HIV-1MDR/B: compared to wild-type HIV-1ERS104pre
Procedure: as §3, §4, §5

HIV-1MDR/C = format: cell-based; settings: for EC50 (μM), HIV-1MDR/C (SI): PHA-PBMCs, p24 Gag; for n-fold change of EC50, HIV-1MDR/C: compared to wild-type HIV-1ERS104pre
Procedure: as §3, §4, §5

HIV-1MDR/G = format: cell-based; settings: for EC50 (μM), HIV-1MDR/G (SI): PHA-PBMCs, p24 Gag; for n-fold change of EC50, HIV-1MDR/G: compared to wild-type HIV-1ERS104pre
Procedure: as §3, §4, §5

HIV-1MDR/TM = format: cell-based; settings: for EC50 (μM), HIV-1MDR/TM (SI): PHA-PBMCs, p24 Gag; for n-fold change of EC50, HIV-1MDR/TM: compared to wild-type HIV-1ERS104pre
Procedure: as §3, §4, §5

HIV-1 = experiment: antiviral assay (IC50); format: cell-based
Procedure: The inhibitory potencies of acyclic and cyclic inhibitors were measured by the assay protocol of Toth and Marshall (Toth, M. V.; Marshall, G. R. A simple, continuous fluorometric assay for HIV protease. Int. J. Pep. Protien Res. 1990, 36, 544-55).

[4] = test system: multidrug-resistant clinical HIV-1 isolates (HIV-1MDR); experiment: microbe, parasite or virus in culture; format: cell-based
Procedure: as §3, §4, §5

[5] = Human immunodeficiency virus 1, MT2, MT-2 cells, MTT assay, mean ± 1 SD, read-out: EC50 (μM) for HIV-1LAI
[6] = Human immunodeficiency virus 2, MT2, MT-2 cells, MTT assay, mean ± 1 SD, read-out: EC50 (μM) for HIV-2EHO
[7] = Human immunodeficiency virus 2, MT2, MT-2 cells, MTT assay, mean ± 1 SD, read-out: EC50 (μM) for HIV-2ROD
[8] = Human immunodeficiency virus 1, MT4, Table 7, mean ± 1 SD, read-out: EC50 (μM), HIV-1NL4-3
[9] = Human immunodeficiency virus 1, MT4, Table 9, mean ± 1 SD, read-out: EC50 (μM), HIV-1NL4-3
[10] = Human immunodeficiency virus 1, MT4, read-out: EC50 (μM), HIV-1NL4-3, Table 7, mean ± 1 SD
[11] = Human immunodeficiency virus 1, MT4, read-out: EC50 (μM), HIV-1NL4-3, Table 9, mean ± 1 SD
[12] = Human immunodeficiency virus 1, Table 2, read-out: IC50
[13] = Human immunodeficiency virus 1, read-out: IC50
[14] = Human immunodeficiency virus 1, MT2, read-out: EC50 (μM) for HIV-1LAI
[15] = Human immunodeficiency virus 2, MT2, read-out: EC50 (μM) for HIV-2EHO
[16] = Human immunodeficiency virus 2, MT2, read-out: EC50 (μM) for HIV-2ROD

Compound | EC50 (HIV-1LAI; [5]) [µM] | EC50 (HIV-2EHO; [6]) [µM] | EC50 (HIV-1NFV5μM) [µM] | EC50 (HIV-1NL4-3 [1]; [10]) [µM] | EC50 (HIV-1NL4-3 [1]; [11]) [µM] | n-fold change in EC50, HIV-1NPV5 μM (HIV-1NFV5μM) | EC50 (μM), HIV-1ERS104pre (wild-type SI) [3] [µM] | EC50 (μM), HIV-1MDR/B (SI) (HIV-1MDR/B) [µM] | n-fold change of EC50, HIV-1MDR/B (HIV-1MDR/B) | EC50 (μM), HIV-1MDR/C (SI) (HIV-1MDR/C) [µM] | n-fold change of EC50, HIV-1MDR/C (HIV-1MDR/C) | EC50 (μM), HIV-1MDR/G (SI) (HIV-1MDR/G) [µM] | n-fold change of EC50, HIV-1MDR/G (HIV-1MDR/G) | EC50 (μM), HIV-1MDR/TM (SI) (HIV-1MDR/TM) [µM] | n-fold change of EC50, HIV-1MDR/TM (HIV-1MDR/TM) | EC50 (HIV-1LAI; [14]) [µM] | Selectivity Index (HIV-1LAI) | EC50 (HIV-2EHO; [15]) [µM] | EC50 (HIV-2ROD; [16]) [µM] | CC50 (cytotoxicity CC50) [µM] | other results
CC(C)CN(C[C@@H](O)[C@H](Cc1ccccc1)NC(=O)O[C@H]1CCOC1)S(=O)(=O)c1ccc(N)cc1 [APV, Amprenavir] | 0.024 ± 0.008 | 0.12 ± 0.03 | 0.028 ± 0.005 | – | – | – | – | – | – | – | – | – | – | – | – | – | – | – | – | – | EC50 (HIV-2ROD; [7]): 0.42 ± 0.1 µM; CC50 (cytotoxicity CC50; MT-2 cells, read-out: CC50): > 100 µM; EC50 (HIV-1NL4-3 [1]; [8]): 0.034 ± 0.001 µM; EC50 (HIV-1NL4-3 [1]; [9]): 0.032 ± 0.001 µM; passage by which HIV-1 variants replicating in the presence of 1 μM drug emerged (HIV-1NL4-3 [2]): 20 passages
COC(=O)N[C@H](C(=O)N[C@@H](Cc1ccccc1)[C@@H](O)CN(Cc1ccc(-c2ccccn2)cc1)NC(=O)[C@@H](NC(=O)OC)C(C)(C)C)C(C)(C)C [AZV, Atazanavir] | – | – | 0.027 ± 0.005 | 0.004 ± 0.0004 | 0.0032 ± 0.0001 | (7) | 0.002 ± 0.001 | 0.20 ± 0.10 | (100) | 0.065 ± 0.008 | (33) | 0.033 ± 0.024 | (17) | 0.065 ± 0.008 | (33) | – | – | – | – | – | –
COc1ccc2c(c1)OCCCC=CCCCCN(CC(O)C(Cc1ccccc1)NC(=O)OC1COC3OCCC13)S2(=O)=O (centres unmarked) [Compound 14b] | – | – | 0.041 ± 0.006 | 0.009 ± 0.0006 | 0.006 ± 0.005 | (5) | – | 0.089 ± 0.016 | (13) | 0.029 ± 0.001 | (4) | 0.028 ± 0.004 | (4) | 0.072 ± 0.014 | (10) | 0.004 ± 0.001 | 8,280 | 0.018 ± 0.013 | 0.025 ± 0.002 | 33.1 ± 2.5 | IC50 (HIV-1; [12]): < 0.01 µM; IC50 (HIV-1; [13]): < 0.049 µM; EC50 (μM), HIV-1ERS104pre (wild-type SI) ([3]; listed as GRL-286): 0.007 µM and 0.007 ± 0.002 µM; passage by which HIV-1 variants replicating in the presence of 1 μM drug emerged (HIV-1NL4-3 [2]): 37 passages
COc1ccc2c(c1)OCCC=CCCCCN(CC(O)C(Cc1ccccc1)NC(=O)OC1COC3OCCC13)S2(=O)=O (centres unmarked) [Compound 14c] | – | – | 0.04 ± 0.017 | 0.005 ± 0.001 | 0.004 ± 0.001 | – | – | – | – | – | – | – | – | – | – | 0.002 ± 0.001 | – | 0.01 ± 0.007 | 0.017 ± 0.001 | 48.8 ± 1.3 | IC50 (HIV-1; [12]): < 0.01 µM; IC50 (HIV-1; Human immunodeficiency virus 1, text b167): 0.002 µM; IC50 (HIV-1; [13]): 0.002 µM
Cc1cccc(C)c1OCC(=O)N[C@@H](Cc1ccccc1)[C@@H](O)C[C@H](Cc1ccccc1)NC(=O)[C@H](C(C)C)N1CCCNC1=O [LPV, lopinavir] | 0.039 ± 0.006 | 0.035 ± 0.025 | 0.037 ± 0.004 | – | – | (1) | 0.034 ± 0.002 | > 1 | > 29 | > 1 | > 29 | 0.26 ± 0.04 | (8) | > 1 | > 29 | – | >2,560 | – | – | > 100 | EC50 (HIV-2ROD; [7]): 0.028 ± 0.004 µM; EC50 (HIV-1NL4-3 [1]; [8]): 0.046 ± 0.025 µM; EC50 (HIV-1NL4-3 [1]; [9]): 0.035 ± 0.004 µM; EC50 ([4]; Human immunodeficiency virus 1, read-out: EC50 with multidrug-resistant clinical HIV-1 isolates (mostly)): > 1 µM
CCC[C@@]1(CCc2ccccc2)CC(O)=C([C@H](CC)c2cccc(NS(=O)(=O)c3ccc(C(F)(F)F)cn3)c2)C(=O)O1 [TPV, Tipranavir] | – | – | 0.039 ± 0.041 | 0.32 ± 0.07 | 0.29 ± 0.05 | (0.1) | 0.12 ± 0.03 | 0.18 ± 0.009 | (2) | 0.38 ± 0.079 | (3) | 0.24 ± 0.08 | (2) | 0.38 ± 0.05 | (3) | 0.17 ± 0.005 | 320 | 0.3 ± 0.15 | 0.33 ± 0.07 | – | EC50 ([4]; Human immunodeficiency virus 1, read-out: greatest EC50 value against the clinical isolates): 0.38 µM
